Assay results published in patent US8552002B2 (Novartis AG, priority 2004, dated 2013).

Experiments:
JNK2α2 = target: T1, JNK2α2 (Homo sapiens, UniProt P45984); assay: Upstate KinaseProfiler radio-enzymatic filter binding assay; format: biochemical; details: read-out: percentage inhibition of JNK2α2
T1 construct: purchased Upstate (KinaseProfiler panel)
Procedure: (§1) Compounds of the invention are assessed for their ability to inhibit individual members of a panel of kinases (a partial, non-limiting list of kinases includes: Abl, BCR-Abl, BMX, FGFR35, Lck, JNK1, JNK2, CSK, RAF, MKK6 and P38). The compounds are tested in duplicates at a final concentration of 10 μM following this generic protocol. Note that the kinase buffer composition and the substrates vary for the different kinases included in the “Upstate KinaseProfiler™” panel. Kinase buffer (2.5 μL, 10×—containing MnCl2 when required), active kinase (0.001-0.01 Units; 2.5 μL), specific or Poly(Glu4-Tyr) peptide (5-500 μM or 0.01 mg/ml) in kinase buffer and kinase buffer (50 μM; 5 μL) are mixed in an eppendorf on ice. A Mg/ATP mix (10 μL; 67.5 (or 33.75) mM MgCl2, 450 (or 225) μM ATP and 1 μCi/μl [γ-^32P]-ATP (3000 Ci/mmol)) is added and the reaction is incubated at about 30° C. for about 10 minutes. The reaction mixture is spotted (20 μL) onto a 2 cm×2 cm P81 (phosphocellulose, for positively charged peptide substrates) or Whatman No. 1 (for Poly (Glu4-Tyr) peptide substrate) paper square. The assay squares are washed 4 times, for 5 minutes each, with 0.75% phosphoric acid and washed once with acetone for 5 minutes. The assay squares are transferred to a scintillation vial, 5 ml scintillation cocktail are added and ^32P incorporation (cpm) to the peptide substrate is quantified with a Beckman scintillation counter. Percentage inhibition is calculated for each reaction.

wild-type Abl = target: T2, wild-type Abl (Homo sapiens, UniProt P00519); assay: as above; format: biochemical; details: read-out: percentage inhibition of wild-type Abl
T2 construct: purchased Upstate (KinaseProfiler panel)
T2 sequence (P00519 whole entry, species assumed): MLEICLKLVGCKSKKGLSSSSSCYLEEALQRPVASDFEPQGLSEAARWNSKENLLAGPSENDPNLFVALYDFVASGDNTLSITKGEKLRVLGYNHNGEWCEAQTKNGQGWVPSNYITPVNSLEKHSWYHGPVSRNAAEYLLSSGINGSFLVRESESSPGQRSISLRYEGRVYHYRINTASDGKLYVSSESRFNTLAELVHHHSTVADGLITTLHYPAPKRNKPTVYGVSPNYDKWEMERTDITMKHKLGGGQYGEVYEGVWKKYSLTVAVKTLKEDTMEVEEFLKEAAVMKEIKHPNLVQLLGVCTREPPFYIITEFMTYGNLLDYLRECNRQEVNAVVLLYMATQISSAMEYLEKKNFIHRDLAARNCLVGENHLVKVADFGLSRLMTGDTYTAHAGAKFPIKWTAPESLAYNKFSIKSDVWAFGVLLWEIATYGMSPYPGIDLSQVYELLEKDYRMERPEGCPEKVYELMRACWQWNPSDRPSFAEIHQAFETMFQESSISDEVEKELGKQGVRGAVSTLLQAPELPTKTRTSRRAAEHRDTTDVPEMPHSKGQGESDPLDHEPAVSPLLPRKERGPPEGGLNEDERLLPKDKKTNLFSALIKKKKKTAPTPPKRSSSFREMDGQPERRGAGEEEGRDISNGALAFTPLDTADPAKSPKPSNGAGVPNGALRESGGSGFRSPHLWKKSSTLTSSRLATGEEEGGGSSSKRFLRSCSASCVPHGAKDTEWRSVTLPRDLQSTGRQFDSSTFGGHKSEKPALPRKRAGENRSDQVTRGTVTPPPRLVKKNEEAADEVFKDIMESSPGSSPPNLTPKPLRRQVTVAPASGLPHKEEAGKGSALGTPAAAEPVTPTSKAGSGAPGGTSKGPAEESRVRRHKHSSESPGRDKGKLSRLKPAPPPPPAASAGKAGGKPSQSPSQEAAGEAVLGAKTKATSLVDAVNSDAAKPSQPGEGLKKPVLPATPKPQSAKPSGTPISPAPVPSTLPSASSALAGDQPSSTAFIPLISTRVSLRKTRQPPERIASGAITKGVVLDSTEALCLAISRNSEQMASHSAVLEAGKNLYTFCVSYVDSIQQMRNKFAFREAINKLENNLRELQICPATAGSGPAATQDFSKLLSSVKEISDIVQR
Procedure: as §1

p70S6K = target: T3, p70S6K (Homo sapiens, UniProt P23443); assay: as above; format: biochemical; details: read-out: percentage inhibition of p70S6K
T3 construct: purchased Upstate (KinaseProfiler panel)
Procedure: as §1

lck = target: T4, lck (Homo sapiens, UniProt P06239); assay: as above; format: biochemical; details: read-out: percentage inhibition of lck
T4 construct: purchased Upstate (KinaseProfiler panel)
T4 sequence (P06239 whole entry, species assumed): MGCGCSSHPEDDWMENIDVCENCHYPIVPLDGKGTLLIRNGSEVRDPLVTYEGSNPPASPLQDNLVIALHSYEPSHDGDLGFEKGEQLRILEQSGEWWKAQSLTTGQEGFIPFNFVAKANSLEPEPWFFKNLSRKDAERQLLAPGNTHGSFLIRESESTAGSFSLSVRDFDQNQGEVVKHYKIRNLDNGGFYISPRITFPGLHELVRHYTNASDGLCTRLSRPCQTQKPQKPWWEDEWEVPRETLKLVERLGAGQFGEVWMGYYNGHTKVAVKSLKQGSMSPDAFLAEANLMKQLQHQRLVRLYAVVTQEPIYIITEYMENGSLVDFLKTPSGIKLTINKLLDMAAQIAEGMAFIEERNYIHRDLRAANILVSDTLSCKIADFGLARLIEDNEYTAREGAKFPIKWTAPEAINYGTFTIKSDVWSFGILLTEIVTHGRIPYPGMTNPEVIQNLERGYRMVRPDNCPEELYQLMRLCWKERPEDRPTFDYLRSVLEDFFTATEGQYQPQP
Procedure: as §1

Tie2 = target: T5, Tie2 (Homo sapiens, UniProt Q02763); assay: as above; format: biochemical; details: read-out: percentage inhibition of Tie2
T5 construct: purchased Upstate (KinaseProfiler panel)
Procedure: as §1

CSK = target: T6, CSK (Homo sapiens, UniProt P41240); assay: as above; format: biochemical; details: read-out: percentage inhibition of CSK
T6 construct: purchased Upstate (KinaseProfiler panel)
T6 sequence (P41240 whole entry, species assumed): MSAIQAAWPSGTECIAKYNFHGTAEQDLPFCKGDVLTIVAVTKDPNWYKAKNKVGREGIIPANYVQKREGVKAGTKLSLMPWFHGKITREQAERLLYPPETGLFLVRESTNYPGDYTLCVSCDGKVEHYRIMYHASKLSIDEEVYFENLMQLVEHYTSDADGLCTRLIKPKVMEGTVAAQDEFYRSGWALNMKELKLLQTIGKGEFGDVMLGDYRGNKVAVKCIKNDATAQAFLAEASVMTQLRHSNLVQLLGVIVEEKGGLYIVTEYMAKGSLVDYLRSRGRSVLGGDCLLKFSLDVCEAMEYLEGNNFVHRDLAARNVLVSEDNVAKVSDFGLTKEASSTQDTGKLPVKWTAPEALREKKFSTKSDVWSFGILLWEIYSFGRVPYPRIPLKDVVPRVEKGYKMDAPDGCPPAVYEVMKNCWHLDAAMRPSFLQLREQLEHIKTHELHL
Procedure: as §1

TrkB = target: T7, TrkB (Homo sapiens, UniProt Q16620); assay: as above; format: biochemical; details: read-out: percentage inhibition of TrkB
T7 construct: purchased Upstate (KinaseProfiler panel)
T7 sequence (Q16620 32-822): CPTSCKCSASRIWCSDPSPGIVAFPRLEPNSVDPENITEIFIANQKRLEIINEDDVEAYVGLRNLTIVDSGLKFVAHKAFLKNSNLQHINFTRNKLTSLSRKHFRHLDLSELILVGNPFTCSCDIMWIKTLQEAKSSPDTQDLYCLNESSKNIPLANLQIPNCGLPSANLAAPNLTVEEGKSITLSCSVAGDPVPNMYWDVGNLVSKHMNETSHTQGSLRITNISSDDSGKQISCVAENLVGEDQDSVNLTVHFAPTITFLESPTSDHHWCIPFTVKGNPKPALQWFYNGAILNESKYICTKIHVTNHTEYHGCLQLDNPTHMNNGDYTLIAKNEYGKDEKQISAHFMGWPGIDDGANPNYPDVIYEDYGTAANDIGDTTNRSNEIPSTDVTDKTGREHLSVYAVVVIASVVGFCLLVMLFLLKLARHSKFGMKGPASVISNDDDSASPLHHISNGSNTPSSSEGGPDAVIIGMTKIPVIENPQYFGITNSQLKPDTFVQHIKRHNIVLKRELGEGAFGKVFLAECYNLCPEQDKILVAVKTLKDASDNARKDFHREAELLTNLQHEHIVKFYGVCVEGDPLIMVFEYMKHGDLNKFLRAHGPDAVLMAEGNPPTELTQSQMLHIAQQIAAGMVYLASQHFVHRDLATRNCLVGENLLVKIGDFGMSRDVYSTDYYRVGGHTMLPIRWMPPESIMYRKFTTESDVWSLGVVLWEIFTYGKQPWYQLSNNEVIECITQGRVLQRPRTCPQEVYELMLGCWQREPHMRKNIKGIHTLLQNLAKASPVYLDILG
Procedure: as §1

ROS = target: T8, ROS (Homo sapiens, UniProt P08922); assay: as above; format: biochemical; details: read-out: percentage inhibition of ROS
T8 construct: purchased Upstate (KinaseProfiler panel)
Procedure: as §1

MKK6 = target: T9, MKK6 (Homo sapiens, UniProt P52564); assay: as above; format: biochemical; details: read-out: percentage inhibition of MKK6
T9 construct: purchased Upstate (KinaseProfiler panel)
T9 sequence (P52564 whole entry, species assumed): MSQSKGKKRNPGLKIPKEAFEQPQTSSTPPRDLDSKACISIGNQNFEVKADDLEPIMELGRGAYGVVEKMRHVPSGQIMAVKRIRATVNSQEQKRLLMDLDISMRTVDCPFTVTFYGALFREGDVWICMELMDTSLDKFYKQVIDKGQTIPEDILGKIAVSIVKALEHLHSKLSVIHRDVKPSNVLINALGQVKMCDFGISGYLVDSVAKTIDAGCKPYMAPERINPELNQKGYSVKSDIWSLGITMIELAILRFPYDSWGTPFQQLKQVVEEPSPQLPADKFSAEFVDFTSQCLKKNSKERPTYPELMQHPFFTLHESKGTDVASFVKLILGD
Procedure: as §1

c-SRC = target: T10, c-SRC (Homo sapiens, UniProt P12931); assay: as above; format: biochemical; details: read-out: percentage inhibition of c-SRC
T10 construct: purchased Upstate (KinaseProfiler panel)
T10 sequence (P12931 whole entry, species assumed): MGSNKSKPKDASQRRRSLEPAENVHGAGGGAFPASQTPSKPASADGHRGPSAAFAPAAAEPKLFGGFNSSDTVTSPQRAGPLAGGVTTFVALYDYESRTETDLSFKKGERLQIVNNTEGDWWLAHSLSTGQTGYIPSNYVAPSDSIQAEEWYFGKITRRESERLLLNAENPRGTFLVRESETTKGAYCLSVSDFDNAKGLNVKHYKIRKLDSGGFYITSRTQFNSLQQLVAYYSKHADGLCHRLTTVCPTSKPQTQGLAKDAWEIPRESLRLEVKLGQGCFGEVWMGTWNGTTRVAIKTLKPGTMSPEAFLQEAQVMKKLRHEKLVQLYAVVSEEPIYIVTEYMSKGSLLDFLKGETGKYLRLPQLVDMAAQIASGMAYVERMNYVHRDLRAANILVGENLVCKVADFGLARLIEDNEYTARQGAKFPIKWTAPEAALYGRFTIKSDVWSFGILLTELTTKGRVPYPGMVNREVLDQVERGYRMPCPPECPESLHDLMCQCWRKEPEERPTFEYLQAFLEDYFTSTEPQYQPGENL
Procedure: as §1

SAPK2β = target: T11, SAPK2β (Homo sapiens, UniProt Q15759); assay: as above; format: biochemical; details: read-out: percentage inhibition of SAPK2β
T11 construct: purchased Upstate (KinaseProfiler panel)
Procedure: as §1

SAPK2α = target: T12, SAPK2α (Homo sapiens, UniProt Q16539); assay: as above; format: biochemical; details: read-out: percentage inhibition of SAPK2α
T12 construct: purchased Upstate (KinaseProfiler panel)
T12 sequence (Q16539 whole entry): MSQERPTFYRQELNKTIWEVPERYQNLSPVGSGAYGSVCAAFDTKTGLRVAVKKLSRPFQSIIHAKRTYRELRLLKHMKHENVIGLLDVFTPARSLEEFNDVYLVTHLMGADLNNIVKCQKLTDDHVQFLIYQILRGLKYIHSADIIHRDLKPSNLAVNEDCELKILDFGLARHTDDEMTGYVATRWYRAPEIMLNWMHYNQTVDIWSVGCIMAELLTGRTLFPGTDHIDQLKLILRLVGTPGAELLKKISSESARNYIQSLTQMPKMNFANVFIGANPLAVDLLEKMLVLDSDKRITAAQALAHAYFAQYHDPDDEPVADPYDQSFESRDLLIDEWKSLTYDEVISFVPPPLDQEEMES
Procedure: as §1

c-RAF = target: T13, c-RAF (Homo sapiens, UniProt P04049); assay: as above; format: biochemical; details: read-out: percentage inhibition of c-RAF
T13 construct: purchased Upstate (KinaseProfiler panel)
T13 sequence (P04049 whole entry, species assumed): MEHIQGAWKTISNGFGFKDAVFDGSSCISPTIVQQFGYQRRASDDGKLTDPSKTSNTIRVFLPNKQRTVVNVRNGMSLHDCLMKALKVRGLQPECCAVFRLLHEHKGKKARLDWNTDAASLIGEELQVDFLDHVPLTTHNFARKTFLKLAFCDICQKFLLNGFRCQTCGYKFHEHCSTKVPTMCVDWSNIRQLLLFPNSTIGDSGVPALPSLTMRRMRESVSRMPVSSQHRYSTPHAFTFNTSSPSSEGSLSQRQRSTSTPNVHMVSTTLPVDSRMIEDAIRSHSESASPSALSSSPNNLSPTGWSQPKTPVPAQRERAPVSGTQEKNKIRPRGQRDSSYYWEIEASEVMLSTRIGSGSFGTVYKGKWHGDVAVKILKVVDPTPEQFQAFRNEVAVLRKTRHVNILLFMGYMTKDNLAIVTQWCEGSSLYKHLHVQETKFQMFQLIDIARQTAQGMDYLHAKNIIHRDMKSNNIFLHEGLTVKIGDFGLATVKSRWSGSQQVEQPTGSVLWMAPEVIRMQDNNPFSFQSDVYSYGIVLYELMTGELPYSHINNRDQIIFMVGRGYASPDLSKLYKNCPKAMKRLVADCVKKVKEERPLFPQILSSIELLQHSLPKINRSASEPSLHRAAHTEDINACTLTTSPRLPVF
Procedure: as §1

wild type Bcr-abl = target: T14, wild type Bcr-abl (Homo sapiens, UniProt P00519); assay: Antiproliferative effect on cells expressing wild type Bcr-abl; format: cell-based; details: cell proliferation
T14 construct: the major C-terminal part (exons 2-11) of the c-abl gene; expressed in transfected cells; host or cells: murine 32D (32D-p210) or Ba/F3 cells; the other entry of the earlier key: BCR (P11274, Breakpoint cluster region protein)
Procedure: 32D-p210 cells are plated into 96 well TC plates at a density of 15,000 cells per well. 50 μL of two fold serial dilutions of the test compound (Cmax is 40 μM) are added to each well (STI571 is included as a positive control). After incubating the cells for 48 hours at 37° C., 5% CO2, 15 μL of MTT (Promega) is added to each well and the cells are incubated for an additional 5 hours. The optical density at 570 nm is quantified spectrophotometrically and IC50 values, the concentration of compound required for 50% inhibition, determined from a dose response curve.
Compounds of the invention are tested for their antiproliferative effect on Ba/F3 cells expressing either wild type or the mutant forms of BCR-Abl (G250E, E255V, T315I, F317L, M351T) that confers resistance or diminished sensitivity to STI571. The antiproliferative effect of these compounds on the mutant-BCR-Abl expressing cells and on the non transformed cells were tested at 10, 3.3, 1.1 and 0.37 μM as described above (in media lacking IL3). The IC50 values of the compounds lacking toxicity on the untransformed cells were determined from the dose response curves obtained as describe above.

FGFR35 = FGFR35 (Homo sapiens, UniProt P22607); assay: Upstate KinaseProfiler radio-enzymatic filter binding assay; format: biochemical; design: purchased Upstate; details: read-out: percentage inhibition of FGFR35
Procedure: Compounds of the invention are assessed for their ability to inhibit individual members of a panel of kinases (a partial, non-limiting list of kinases includes: Abl, BCR-Abl, BMX, FGFR35, Lck, JNK1, JNK2, CSK, RAF, MKK6 and P38). The compounds are tested in duplicates at a final concentration of 10 μM following this generic protocol. Note that the kinase buffer composition and the substrates vary for the different kinases included in the “Upstate KinaseProfiler™” panel. Kinase buffer (2.5 μL, 10×—containing MnCl2 when required), active kinase (0.001-0.01 Units; 2.5 μL), specific or Poly(Glu4-Tyr) peptide (5-500 μM or 0.01 mg/ml) in kinase buffer and […] are mixed in an eppendorf on ice. A Mg/ATP mix (10 μL; 67.5 (or 33.75) mM MgCl2, 450 (or 225) μM ATP and 1 μCi/μl [γ-^32P]-ATP (3000 Ci/mmol)) is added and the reaction is incubated at about 30° C. for about 10 minutes. […] The assay squares are transferred to a scintillation vial, 5 ml scintillation cocktail are added and ^32P incorporation (cpm) to the peptide substrate is quantified with a Beckman scintillation counter. Percentage inhibition is calculated for each reaction.

PDGFRβ = PDGFRβ (Homo sapiens, UniProt P09619); assay: Inhibition of PDGFRβ; format: biochemical
Procedure: Compounds selectively inhibiting the proliferation of these BCR-Abl transformed cells are tested for anti-proliferative activity on Ba/F3 cells expressing either wild type or the mutant forms of Bcr-abl. In addition, compounds are assayed to measure their capacity to inhibit FGFR35 (in an enzyme and cellular assay), FLT3, PDGFRβ, trkB, c-SRC, BMX, SGK, Tie2, Lck, JNK2α2, MKK4, c-RAF, MKK6, SAPK2α and SAPK2β kinases.

Structure (SMILES): Cc1ccc(NC(=O)c2cccc(C(F)(F)F)c2)cc1NC(=O)N(CCCN1CCCC1=O)c1cc(N)ncn1 [Example 215, N-(3-{3-(6-Amino-pyrimidin-4-yl)-3-[3-(2-oxo-pyrrolidin-1-yl)-propyl]-ureido}-4-methyl-phenyl)-3-trifluoromethyl-benzamide]
- inhibition at 10 µM (JNK2α2): 93%
- inhibition at 10 µM (wild-type Abl): 99%
- inhibition at 10 µM (p70S6K): 81%
- inhibition at 10 µM (lck): 100%
- inhibition at 10 µM (Tie2): 100%
- inhibition at 10 µM (CSK): 97%
- inhibition at 10 µM (TrkB): 99%
- inhibition at 10 µM (ROS): 95%
- inhibition at 10 µM (MKK6): 88%
- inhibition at 10 µM (c-SRC): 100%
- inhibition at 10 µM (SAPK2β): 99%
- inhibition at 10 µM (SAPK2α): 99%
- inhibition at 10 µM (c-RAF): 99%
- IC50 (wild type Bcr-abl): 10 nM
- inhibition at 10 µM (FGFR35): 99%
- IC50 (PDGFRβ): 2 nM
